Source: ChEMBL document CHEMBL2203036, “Discovery of 1-[2-(2,4-dimethylphenylsulfanyl)phenyl]piperazine (Lu AA21004): a novel multimodal compound for the treatment of major depressive disorder” (J Med Chem, 2011)
The source made the active and inactive calls. The calls are words filed in the database; no cut-off is given here.

Key:
[1] = target: 5-hydroxytryptamine receptor 1B (Homo sapiens, UniProt P28222); assay: Partial agonist activity at human 5HT1B receptor expressed in CHO cells assessed as [35S]GTPgammaS binding; format: functional, cell-based
Chain of 5-hydroxytryptamine receptor 1B (P28222 whole entry): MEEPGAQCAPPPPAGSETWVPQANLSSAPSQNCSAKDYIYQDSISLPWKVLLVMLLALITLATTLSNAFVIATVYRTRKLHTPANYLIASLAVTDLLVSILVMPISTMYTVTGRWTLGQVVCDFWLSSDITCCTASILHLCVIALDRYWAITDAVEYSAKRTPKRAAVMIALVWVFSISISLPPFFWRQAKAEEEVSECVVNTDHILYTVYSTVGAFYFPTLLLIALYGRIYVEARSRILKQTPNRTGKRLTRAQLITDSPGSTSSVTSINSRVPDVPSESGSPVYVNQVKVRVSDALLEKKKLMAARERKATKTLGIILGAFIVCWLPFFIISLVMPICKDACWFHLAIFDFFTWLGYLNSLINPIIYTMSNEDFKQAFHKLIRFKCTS

[2] = target: 5-hydroxytryptamine receptor 3A (Rattus norvegicus, UniProt P35563); assay: Antagonist activity at rat 5HT3A receptor expressed in xenopus oocytes assessed as inhibition of 5HT-induced effect by electrophysiological method; format: functional, cell-based, Oocyte
Chain of 5-hydroxytryptamine receptor 3A (Rattus norvegicus, UniProt P35563) (P35563 whole entry): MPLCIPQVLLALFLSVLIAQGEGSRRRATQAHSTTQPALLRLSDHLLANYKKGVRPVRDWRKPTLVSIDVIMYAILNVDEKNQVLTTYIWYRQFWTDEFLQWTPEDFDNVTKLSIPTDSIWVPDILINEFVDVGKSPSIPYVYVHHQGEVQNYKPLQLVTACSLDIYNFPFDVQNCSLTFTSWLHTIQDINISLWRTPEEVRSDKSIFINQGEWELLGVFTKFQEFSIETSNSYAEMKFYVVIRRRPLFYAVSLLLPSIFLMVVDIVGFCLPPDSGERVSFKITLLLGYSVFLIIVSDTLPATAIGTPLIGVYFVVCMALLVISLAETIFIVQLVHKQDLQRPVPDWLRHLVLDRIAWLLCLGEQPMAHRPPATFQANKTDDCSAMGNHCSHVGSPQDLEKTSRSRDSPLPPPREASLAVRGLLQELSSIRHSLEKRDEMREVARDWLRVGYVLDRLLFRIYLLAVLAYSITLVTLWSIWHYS

Rattus norvegicus [3] = assay: Hepatic clearance in rat at 1 mg/kg, iv; format: ADME, organism-based, Liver; set-up: dose 1 mg/kg, route intravenous; conditions: in vivo
[4] = Inhibition of NET-mediated [3H]NE in rat synaptosomes by scintillation counting; format: subcellular, Brain
Cytochrome P450 2D6 = Cytochrome P450 2D6 (Homo sapiens, UniProt P10635); assay: Inhibition of human recombinant CYP2D6 using 3-[2-(N,N-diethyl-N-methylamino)ethyl]-7-methoxy- 4-methylcoumarin after 45 mins by fluorescence spectrophotometric analysis; format: ADME
Chain of Cytochrome P450 2D6 (P10635 whole entry): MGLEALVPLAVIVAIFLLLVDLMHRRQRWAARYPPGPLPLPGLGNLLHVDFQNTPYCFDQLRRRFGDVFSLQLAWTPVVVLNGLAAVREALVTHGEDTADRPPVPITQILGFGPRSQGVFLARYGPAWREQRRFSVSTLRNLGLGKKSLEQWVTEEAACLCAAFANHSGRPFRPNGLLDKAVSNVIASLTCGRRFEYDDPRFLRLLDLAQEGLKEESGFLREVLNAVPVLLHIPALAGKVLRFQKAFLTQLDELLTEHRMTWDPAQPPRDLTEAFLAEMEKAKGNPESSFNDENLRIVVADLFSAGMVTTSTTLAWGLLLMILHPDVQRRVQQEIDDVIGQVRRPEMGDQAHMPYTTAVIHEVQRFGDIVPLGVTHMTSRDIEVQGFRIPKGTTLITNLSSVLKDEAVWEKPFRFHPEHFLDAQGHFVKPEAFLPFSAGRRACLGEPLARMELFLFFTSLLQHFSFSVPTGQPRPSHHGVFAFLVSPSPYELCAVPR

[5] = target: T1, 5-hydroxytryptamine receptor 3A (Homo sapiens) (UniProt P46098); assay: Agonist activity at human 5HT3A receptor expressed in xenopus oocytes by electrophysiological method in presence of ondansetron; conditions: Oocyte
T1 sequence (whole entry): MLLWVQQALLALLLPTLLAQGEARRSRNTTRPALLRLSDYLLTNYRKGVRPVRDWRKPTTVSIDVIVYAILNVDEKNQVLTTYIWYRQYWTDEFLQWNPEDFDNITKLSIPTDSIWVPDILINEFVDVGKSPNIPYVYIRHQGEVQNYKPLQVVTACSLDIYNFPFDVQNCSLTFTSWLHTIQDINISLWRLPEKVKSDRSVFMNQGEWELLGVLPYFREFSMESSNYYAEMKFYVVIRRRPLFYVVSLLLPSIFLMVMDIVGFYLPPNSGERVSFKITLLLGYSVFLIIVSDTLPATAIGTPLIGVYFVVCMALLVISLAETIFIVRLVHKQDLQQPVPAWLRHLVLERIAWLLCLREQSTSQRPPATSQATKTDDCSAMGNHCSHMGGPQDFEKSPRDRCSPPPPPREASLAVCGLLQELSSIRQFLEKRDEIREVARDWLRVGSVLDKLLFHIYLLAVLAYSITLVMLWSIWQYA

[6] = target: 5-hydroxytryptamine receptor 2C (Homo sapiens, UniProt P28335); assay: Binding affinity to human 5HT2C receptor
Chain of 5-hydroxytryptamine receptor 2C (P28335 whole entry): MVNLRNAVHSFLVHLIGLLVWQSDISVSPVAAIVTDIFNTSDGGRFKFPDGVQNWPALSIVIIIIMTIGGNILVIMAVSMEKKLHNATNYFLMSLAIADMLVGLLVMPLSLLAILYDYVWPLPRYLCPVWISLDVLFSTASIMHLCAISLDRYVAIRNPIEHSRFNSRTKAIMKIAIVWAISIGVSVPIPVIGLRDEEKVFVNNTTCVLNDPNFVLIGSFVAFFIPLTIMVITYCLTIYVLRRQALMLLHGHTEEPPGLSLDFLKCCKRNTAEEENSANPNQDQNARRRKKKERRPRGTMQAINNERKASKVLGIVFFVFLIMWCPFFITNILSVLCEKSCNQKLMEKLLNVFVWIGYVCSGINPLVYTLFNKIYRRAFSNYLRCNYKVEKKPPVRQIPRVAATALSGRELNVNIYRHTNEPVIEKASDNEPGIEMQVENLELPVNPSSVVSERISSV

[7] = target: T1, 5-hydroxytryptamine receptor 3A (Homo sapiens); assay: Agonist activity at human 5HT3A receptor expressed in xenopus oocytes by electrophysiological method relative to 5HT; conditions: Oocyte
Rattus norvegicus [8] = assay: Antidepression activity in Harlan rat assessed as increase in extracellular 5HT level in ventral hippocampus region at 2.5 to 10 mg/kg, sc by microdialysis method; conditions: TDE = time-dependent effect
[9] = target: T2, 5-hydroxytryptamine receptor 3A (Homo sapiens, UniProt P46098); assay: Binding affinity to human 5HT3A receptor
T2 sequence (P46098 whole entry): T1 sequence (whole entry)

[10] = target: Beta-1 adrenergic receptor (Homo sapiens, UniProt P08588); assay: Binding affinity to human beta 1 adrenergic receptor
Chain of Beta-1 adrenergic receptor (P08588 whole entry): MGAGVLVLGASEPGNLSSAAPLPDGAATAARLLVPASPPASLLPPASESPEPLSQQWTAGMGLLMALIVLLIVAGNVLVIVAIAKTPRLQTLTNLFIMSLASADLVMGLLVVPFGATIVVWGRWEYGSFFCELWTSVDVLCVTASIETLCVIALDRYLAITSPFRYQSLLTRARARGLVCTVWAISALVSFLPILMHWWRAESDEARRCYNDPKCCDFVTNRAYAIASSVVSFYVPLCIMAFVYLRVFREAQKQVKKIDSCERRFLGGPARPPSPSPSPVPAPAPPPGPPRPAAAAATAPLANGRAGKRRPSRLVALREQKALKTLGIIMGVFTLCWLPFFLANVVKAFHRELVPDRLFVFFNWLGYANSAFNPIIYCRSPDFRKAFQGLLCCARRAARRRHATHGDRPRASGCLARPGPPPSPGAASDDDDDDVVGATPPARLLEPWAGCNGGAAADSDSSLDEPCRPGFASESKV

[11] = target: Beta-2 adrenergic receptor (Homo sapiens, UniProt P07550); assay: Binding affinity to human beta 2 adrenergic receptor
Chain of Beta-2 adrenergic receptor (P07550 whole entry): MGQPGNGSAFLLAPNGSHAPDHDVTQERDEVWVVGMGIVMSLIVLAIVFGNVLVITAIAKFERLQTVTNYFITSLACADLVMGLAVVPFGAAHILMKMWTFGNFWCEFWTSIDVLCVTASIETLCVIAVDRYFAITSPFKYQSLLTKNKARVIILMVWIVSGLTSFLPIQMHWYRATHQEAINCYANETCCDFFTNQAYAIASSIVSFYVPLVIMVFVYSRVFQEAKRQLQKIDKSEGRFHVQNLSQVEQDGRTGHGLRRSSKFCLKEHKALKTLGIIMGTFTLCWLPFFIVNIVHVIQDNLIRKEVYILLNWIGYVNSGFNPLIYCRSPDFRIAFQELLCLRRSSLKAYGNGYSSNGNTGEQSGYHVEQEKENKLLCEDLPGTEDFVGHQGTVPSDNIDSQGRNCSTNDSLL

[12] = target: T2, 5-hydroxytryptamine receptor 3A; assay: Displacement of [3H]granisetron from human 5HT3A receptor expressed in HEK293 cells by filter binding assay; format: cell-based
Rattus norvegicus [13] = assay: Antidepression activity in Harlan rat assessed as increase in extracellular 5HT level in medial prefrontal cortex region at 5 to 10 mg/kg, sc administered QD for 3 days by microdialysis method

## Cc1ccc(Sc2ccccc2N2CCNCC2)c(C)c1.Cl
[1]
  EC50: 120 nM
[2]
  IC50: 0.18 nM
Rattus norvegicus [3]
  CLH: 118 mL/min/kg
[4]
  IC50: 140 nM
Cytochrome P450 2D6
  IC50: 9800 nM
[5]
  Activity: inactive
[6]
  Ki: 180 nM
[7]
  Efficacy: 64%
Rattus norvegicus [8]
  Activity: tde
[9]
  Ki: 3.7 nM
[10]
  Ki: 46 nM
[11]
  Ki: 560 nM
[12]
  Ki: 23 nM
Rattus norvegicus [13]
  Activity: Active
